We go through 6 compounds from patent publication US10582707B2, “Antimicrobial antibacterial and spore germination inhibiting activity from an avocado extract enriched in bioactive compounds” (priority 2010, dated 2020).

Values after ≈ are worked out from the molar mass of the structure shown.

Series [1] has as its system Clostridium sporogenes (ATCC 7955) heat shocked spores. The experiment in a line: microbe, parasite or virus in culture. It is filed as cell-based. The following applies: ATCC7955, isolated compounds at 0.5 mg/ml, read-out: Disc Inhibition Zone, Heat Shocked Spores. The protocol:
(§1) For the antibacterial evaluations, adjusted solutions (5 μL) were transferred to sterile 6-mm diameter discs made from Whatman no. 1 filter paper, so that after solvent evaporation each disc contained 12.5 μg of solids from the enriched avocado seed extract. Experimental controls were treated under the same conditions that the extracts and included negative control discs that contained 5 μL of acetone, and for positive control discs 5 μL of a nisin solution (30 mg/ml in sterile water) were added to provide a residual concentration of 150 μg of nisin in each disc. All test discs were left for about 1-2 hr in a Biological Safety Cabinet to evaporate the solvent. Suspensions of about 0.1 optical density (at 600 nm) containing approximately 1 to 2×10^8 CFU/ml of Clostridium sporogenes (ATCC 7955) vegetative cells, isolated native spores or isolated heat shocked spores were prepared as described in official protocols of Health Canada (Food Directorate, 2010). Aliquots of the suspensions (100 μL) were transferred to Petri dishes containing 15 ml of solid medium (TPGY medium) and spread evenly with a sterile plastic rod. Four discs, each containing 12.5 μg of the test extract, and two more discs (one solvent blank and one nisin positive control) were placed each dish and incubated at 37° C. under anaerobic conditions. The diameter of the inhibition zones (cm) around the discs were measured after 36 hrs.

Series [2] concerns Clostridium sporogenes (ATCC 7955) vegetative cells. The experiment in a line: microbe, parasite or virus in culture. To be noted: for zone of inhibition at 500 µg/mL: Clostridium sporogenes, ATCC7955, isolated compounds at 0.5 mg/ml, read-out: Disc Inhibition Zone, Vegetative Cells. The series is classed as cell-based. How it is done: as §1
Series [3] relates to heat shocked spores from C. sporogenes. The experiment in a line: MIC and MBC, heat shocked spores. The series is classed as cell-based. To be noted: Clostridium sporogenes, Example 11 method (Tables 6 and 10). The protocol:
In order to further characterize the antibacterial activities of the fractions with the highest activity, it was important to determine their minimum inhibitory concentration (MIC), defined as the lowest concentration of an antimicrobial that will inhibit the visible growth of a microorganism after overnight incubation. […] But in the case of heat-shocked spores, the differences between nisin and the fractions with Kd of 0.4 were less pronounced, but still presented the desired inhibitory properties against spore germination.
In general terms, MIC is defined as the lowest concentration of an antimicrobial that will inhibit the visible growth of a microorganism after overnight incubation. While the MBC is the lowest concentration of the antimicrobial that will prevent the growth of a microorganism after subculture to fresh agar media free from the antibiotic or antimicrobial agent. The pool of active the fractions was tested at concentrations ranging from 0.005 to 2.5 mg/ml and nisin was used as control.

The subject of a further series is S. aureus. The experiment in a line: Disc inhibition zone, S. aureus vegetative cells. It is filed as cell-based. The following applies: isolated compounds at 0.5 mg/ml, Table 9; for zone of inhibition at 500 µg/mL: Staphylococcus aureus. The protocol: (§2) For the antibacterial evaluations, adjusted solutions (5 μL) were transferred to sterile 6-mm diameter discs made from Whatman no. 1 filter paper, so that after solvent evaporation each disc contained 12.5 μg of solids from the enriched avocado seed extract. […] All test discs were left for about 1-2 hr in a Biological Safety Cabinet to evaporate the solvent. Suspensions of about 0.1 optical density (at 600 nm) containing approximately 1 to 2×10^8 CFU/ml of Clostridium sporogenes (ATCC 7955) vegetative cells, isolated native spores or isolated heat shocked spores were prepared as described in official protocols of Health Canada (Food Directorate, 2010). Aliquots of the suspensions (100 μL) were transferred to Petri dishes containing 15 ml of solid medium (TPGY medium) and spread evenly with a sterile plastic rod. […] The diameter of the inhibition zones (cm) around the discs were measured after 36 hrs.
(§3) The fractions obtained from Normal phase FCPC, were then used to assess their antimicrobial activities against the growth of vegetative cells from S. aureus and B. subtilis.
(§4) In this example, the antimicrobial activities of the same isolated compounds described in Example 10 (Table 5) were tested against the growth of vegetative cells and heat shocked spores of C. sporogenes, and on vegetative cells of S. aureus, P. aeuroginosa, E. coli. and B. subtilis as previously described in Example 1, and at a concentration of 0.5 mg/ml.

The test system of a further series is B. subtilis. The experiment in a line: Disc inhibition zone, B. subtilis vegetative cells. The series is classed as cell-based. To be noted: Bacillus subtilis, isolated compounds at 0.5 mg/ml, Table 9, read-out: Disc inhibition zone, B. Subtillis. How it is done:
as §2, §3, §4

For the next series, the system named is P. aeuroginosa. The experiment in a line: Disc inhibition zone, P. aeuroginosa vegetative cells. It is filed as cell-based. To be noted: isolated compounds at 0.5 mg/ml, Table 9. How it is done:
as §1
(§5) In this example, the antimicrobial activities of the same isolated compounds described in Example 10 (Table 5) were tested against the growth of vegetative cells and heat shocked spores of C. sporogenes, and on vegetative cells of S. aureus, P. aeuroginosa, E. coli. and B. subtilis as previously described in Example 1, and at a concentration of 0.5 mg/ml. […] Since it has been reported that persin is able to inhibit fungi spore germination (Prusky et al., 1982), and in the present experiment it seems to have the lowest activity, it can be assumed that the other bioactive compound would have a higher activity against fungi spore.

The test system of a further series is E. coli. The experiment in a line: Disc inhibition zone, E. coli vegetative cells. It is filed as cell-based. To be noted: isolated compounds at 0.5 mg/ml, Table 9; for zone of inhibition at 500 µg/mL: Escherichia coli. The protocol:
as §1, §5

For series [4], the system named is vegetative cells of Listeria monocytogenes. The experiment in a line: Disc inhibition zone, Listeria monocytogenes at refrigeration and optimum temperature. The series is classed as cell-based. The following applies: 0.5 mg/ml.
Series [5] relates to Colletotrichum gloeosporioides. To be noted: cited from earlier work.
The test system of series [6] is silkworm larvae Bombyx mori L. The following applies: in vivo; cited from earlier work.
A further series deals with Spodoptera exigua. To be noted: in vivo; cited from earlier work.
Series [7] deals with lactating mammary gland and myocardial fibers of mice. To be noted: cited from earlier work.

`CC/C=C/CCCCCCCCC/C=C/C(=O)C[C@@H](O)COC(C)=O` (single isomer, unassigned) [Compound 6]: the zone of inhibition at 500 µg/mL in [1] came out at 17 mm; in series [2] it was 19 mm; with S. aureus it was 0 mm; in the series on B. subtilis, 13 mm; in the series with P. aeuroginosa, 0 mm; in the series on E. coli, 0 mm. Also, the zone of inhibition at 500 µg/mL in series [4] (37° C, 48 hours) is 0 mm; in series [4] (480 h, 4° C., 20 days), 11 mm. Further, the lowest concentration to inhibit growth in [3] (MIC) was 15.6 µg/mL (≈ 44.3 µM). For the same compound, the “Disc inhibition zone, S. aureus” value in the series on S. aureus is “did not show inhibitory activity”. Further, in the series on P. aeuroginosa, the “Disc inhibition zone, P. aeuroginosa” value is on record as “did not show inhibitory activity”. Moreover, the “Disc inhibition zone, E. coli” value in the series on E. coli is “did not show inhibitory activity”.

For the compound `CCCCC/C=C\C/C=C\CCCCC/C=C/C(=O)C[C@@H](O)COC(C)=O` (single isomer, unassigned) [Compound 7], the zone of inhibition at 500 µg/mL in series [1] amounted to 15 mm; in [2] it was 16 mm; in the series on S. aureus it was 0 mm; in the series with B. subtilis, 7 mm; with P. aeuroginosa, 0 mm; with E. coli, 0 mm. In addition, the zone of inhibition at 500 µg/mL in series [4] (37° C, 48 hours) turned out to be 0 mm; in [4] (480 h, 4° C., 20 days) it was 11 mm. In addition, inhibition of growth in series [3] (MIC) required 7.8 µg/mL (≈ 20.6 µM). The “Disc inhibition zone, S. aureus” value with S. aureus is “did not show inhibitory activity”. The “Disc inhibition zone, P. aeuroginosa” value in the series with P. aeuroginosa is reported as “did not show inhibitory activity”. The “Disc inhibition zone, E. coli” value with E. coli is “did not show inhibitory activity”.

Take `C=CCCCCCCCCCCC[C@H](O)C[C@H](O)COC(C)=O` [Compound 3, (2S, 4S)-1-acetoxy-2,4-dihydroxy-n-heptadeca-16-ene]: the zone of inhibition at 500 µg/mL worked out at 10 mm in series [1]; 11 mm in series [2]; 0 mm in series [4] (37° C, 48 hours); 0 mm in [4] (480 h, 4° C., 20 days). Besides, the “bioactivity fold lower than that of persin” value in series [5] was 3 fold.

Consider `C=C/C=C/CCCCCCCCCCCC(=O)C[C@@H](O)COC(C)=O` [Compound 5, (2R, 16E)-1-acetoxy-2-hydroxy-4-oxo-nonadeca-16,18-diene], for which the zone of inhibition at 500 µg/mL in [1] worked out at 11 mm; in series [2], 10 mm; in [4] (37° C, 48 hours) it was 0 mm; in series [4] (480 h, 4° C., 20 days), 0 mm.

`CCCCCCCCCCCCC/C=C/C(=O)C[C@@H](O)COC(C)=O` [Compound 9A, (5E)-1-acetoxy-2-hydroxy-5-nonadecen-4-one]: the zone of inhibition at 500 µg/mL in series [1] was 17 mm; in series [2], 19 mm; in the series with S. aureus, 0 mm; in the series with B. subtilis, 0 mm; with P. aeuroginosa it was 0 mm; in the series with E. coli, 0 mm. Also, the zone of inhibition at 500 µg/mL came out at 0 mm in series [4] (37° C, 48 hours) and 10 mm in series [4] (480 h, 4° C., 20 days). Besides, the MIC – broadly, the lowest concentration found to suppress growth – in series [3] was determined as 7.8 µg/mL (≈ 22 µM). The “Disc inhibition zone, S. aureus” value in the series with S. aureus is “did not show inhibitory activity”. Also, the “Disc inhibition zone, P. aeuroginosa” value in the series with P. aeuroginosa was “did not show inhibitory activity”. Also, the “Disc inhibition zone, E. coli” value with E. coli is listed as “did not show inhibitory activity”.

`CCCCC/C=C\C/C=C\CCCCCCCC(=O)C[C@@H](O)COC(C)=O` [Compound 9B, (R, 12Z, 15Z)-1-acetoxy-2-hydroxy-4-oxo-heneicosa-12,15-diene]: the zone of inhibition at 500 µg/mL in series [1] is 6 mm; in [2], 10 mm; in series [4] (37° C, 48 hours) it was 0 mm; in series [4] (480 h, 4° C., 20 days) it was 0 mm. Besides, the “antimicrobial activity reduced compared with persenone A” value in [2] (lack of C5-C6 double bond, 0.5 mg/ml) is given as 37.5%. Moreover, the “concentration inhibiting fungi spore germination completely” value in series [5] is 790 µg/mL. Further, in series [6], the “concentration in the artificial diet inhibiting larval feeding” value is not below 200 µg/g. In the series on Spodoptera exigua, the “concentration of diet with inhibitory effects on feeding” value is 400 µg/g. Moreover, the “concentration of diet with inhibitory effects on larval growth” value in the series with Spodoptera exigua was 200 µg/g. Besides, the “dose rate inducing lactating mammary gland necrosis” value in [7] was 60 to 100 mg/kg. Also, in series [7], the “doses at which necrosis of myocardial fibers may occur” value was “above 100 mg/kg”.
